Laboratory results: patent US20240279202A1 (NURIX THERAPEUTICS, INC., priority 2021, published 2024)

Target: T1, ITK (Homo sapiens, UniProt Q08881)
T1 sequence (Q08881 1-620): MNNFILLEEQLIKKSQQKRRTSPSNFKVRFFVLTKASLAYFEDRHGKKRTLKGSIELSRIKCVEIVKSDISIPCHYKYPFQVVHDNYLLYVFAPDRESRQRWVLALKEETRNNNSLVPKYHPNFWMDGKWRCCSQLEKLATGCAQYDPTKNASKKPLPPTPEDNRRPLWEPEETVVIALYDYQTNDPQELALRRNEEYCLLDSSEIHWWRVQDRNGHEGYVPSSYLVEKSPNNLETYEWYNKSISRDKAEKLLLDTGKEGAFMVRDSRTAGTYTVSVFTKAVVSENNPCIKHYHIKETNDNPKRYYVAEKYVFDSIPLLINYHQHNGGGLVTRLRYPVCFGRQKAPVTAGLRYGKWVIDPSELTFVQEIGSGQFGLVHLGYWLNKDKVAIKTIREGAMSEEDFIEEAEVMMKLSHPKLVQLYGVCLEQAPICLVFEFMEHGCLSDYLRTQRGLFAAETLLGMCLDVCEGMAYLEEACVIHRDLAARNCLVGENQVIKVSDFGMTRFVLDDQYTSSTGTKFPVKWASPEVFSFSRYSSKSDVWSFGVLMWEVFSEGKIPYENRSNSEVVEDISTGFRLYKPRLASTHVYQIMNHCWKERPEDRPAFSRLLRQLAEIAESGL
Test: ITK degradation HiBiT assay
Assay type: cell-based
Set-up: expressed in transfected cells; host or cells: Molt4 (ATCC CRL-1552), monoclonal clone 1C10, engineered to carry the HiBiT tag
Conditions: 4 hrs; for Dmax: MOLT-4, C-terminal HiBiT-tagged Molt4 cells; for DC50: C-terminal HiBiT-tagged Molt4 cells
Experimental: Itk Degradation Hibit Assay
Compounds provided herein were assayed in vitro with ITK HiBit cell lines. Compound dilution series (11-point, 5 fold dilutions in DMSO, columns 2-12 with replicate in rows A/B, C/D, E/F, G,H at 2000× the final required concentrations were prepared in 96 well plates (Falcon, cat. no. 353077). Column 1, rows A-H were control DMSO. The 2000× solutions ranged from 2 mM to 1.024 nM (final assay concentration range 1 μM to […]). The 2000× solutions were added to cells in […], for a final DMSO concentration of 0.5% and final assay compound concentration of 1×. For the cells, C-terminal HiBiT-tagged Molt4 cells (ATCC CRL-1552, monoclonal cell line clone 1C10) were plated at 1×10^6 cells/mL, 100 μL/well ([…]) in complete RPMI (10% FBS, 1% L-glutamine). The cells were incubated with compound 10 and compound 17 for 4 hrs at […]/6% CO2.
Following incubation, 100 μL of complete Nano-Glo HiBiT Lytic Detection Reagent (Nano-Glo HiBiT Lytic Buffer with 1:50 Nano-Glo HiBiT Lytic Substrate and 1:100 LgBiT Protein; Promega cat. no. N3040) was added. Cells were further incubated for 10 min at room temperature (RT). Luminescence units (LU) were read on an EnVision plate reader (Perkin Elmer, 0.1 sec per well). Percent ITK remaining per sample was calculated as follows: […]
Using Graphpad Prism, % ITK remaining values were plotted as a function of compound concentration. To determine DC50 and Dmax values, resulting curves were fit to the Prism curve-fitting equation “log(inhibitor) vs response—Variable slope (four parameters)” (reported best fit value IC50 used as DC50). ITK was measured with antibody-based MSD (Meso-Scale Discovery) assays shown below.

Compound | Dmax [%] | DC50 [nM]
C[C@H]1CN(C(=O)c2ccc3cc(-c4n[nH]c5c4C[C@@H]4C(F)(F)[C@]4(C)C5)[nH]c3c2)CCN1CC1CCN(c2ccc(C3CCC(=O)NC3=O)cc2F)CC1 (mixture of isomers) [Compound 155] | 84 | 
C[C@@]12Cc3[nH]nc(C(=O)Nc4cnn(C5CCN(C(=O)[C@H]6CC[C@H](Cn7ncc8cc(C9CCC(=O)NC9=O)ccc87)CC6)CC5)c4)c3C[C@@H]1C2(F)F (mixture of isomers) [Compound 164] | 86 | 
C[C@@]12Cc3[nH]nc(C(=O)Nc4cnn(C5CCN(C(=O)C6CCC(Oc7ccc(C8CCC(=O)NC8=O)cn7)CC6)CC5)c4)c3C[C@@H]1C2(F)F (mixture of isomers) [Compound 168] | 88 | 
Cn1c(=O)n(C2CCC(=O)NC2=O)c2ccc(N[C@H]3CC[C@H](C(=O)N4CCC(n5cc(NC(=O)c6n[nH]c7c6C[C@@H]6C(F)(F)[C@]6(C)C7)cn5)CC4)CC3)cc21 (mixture of isomers) [Compound 169] | 80 | 
Cn1c(=O)n(C2CCC(=O)NC2=O)c2cccc(N3CCC(C(=O)N4CCC(n5cc(NC(=O)c6n[nH]c7c6C[C@@H]6C(F)(F)[C@]6(C)C7)cn5)CC4)CC3)c21 (mixture of isomers) [Compound 171] | 88 | 
CC1(C)CCc2c(C(=O)Nc3cnn([C@H]4CC[C@H](C(=O)N5CCN(c6ccc(C7CCC(=O)NC7=O)cn6)CC5)CC4)c3)n[nH]c2C1 (mixture of isomers) [Compound 175] | 65 | 
CC1(C)CCc2c(C(=O)Nc3cnn([C@H]4CC[C@H](C(=O)N5CCN(c6ccc(C7CCC(=O)NC7=O)cc6)CC5)CC4)c3)n[nH]c2C1 (mixture of isomers) [Compound 176] | 76 | 
C[C@@]12Cc3[nH]nc(-c4cc5cc(F)c(C(=O)N6CCN(CC7CCN(c8ccc([C@H]9CCC(=O)NC9=O)cc8)CC7)CC6)cc5[nH]4)c3C[C@@H]1C2(F)F (single isomer, unassigned) [Compound 220] | 89 | 1.4
CC1(C)CCc2c(-c3cc4ccc(N5CCC6(CCN(Cc7ccc8c(c7)C(=O)N(C7CCC(=O)NC7=O)C8=O)CC6)C5=O)cc4[nH]3)n[nH]c2C1 (stereo not drawn) [Compound 8, 5-((2-(2-(6,6-dimethyl-4,5,6,7-tetrahydro-1H-indazol-3-yl)-1H-indol-6-yl)-1-oxo-2,8-diazaspiro[4.5]decan-8-yl)methyl)-2-(2,6-dioxopiperidin-3-yl)isoindoline-1,3-dione] | 92 | 7.8
C[C@@H](C(=O)N(C)c1ccc2cc(-c3n[nH]c4c3C[C@@H]3C(F)(F)[C@]3(C)C4)[nH]c2c1)N1CCN(CC2CCN(c3cc(C4CCC(=O)NC4=O)ccn3)CC2)CC1 (stereo partly drawn) [Compound 23, (2S)—N-(2-((4aS,5aR)-5,5-difluoro-5a-methyl-1,4,4a,5,5a,6-hexahydrocyclopropa[f]indazol-3-yl)-1H-indol-6-yl)-2-(4-((1-(4-(2,6-dioxopiperidin-3-yl)pyridin-2-yl)piperidin-4-yl)methyl)piperazin-1-yl)-N-methylpropanamide] | 82 | < 0.001
C[C@@]12Cc3[nH]nc(-c4cc5ccc(N6CCC7(CCN(C(=O)C8CCN(c9ccc(C%10CCC(=O)NC%10=O)cn9)CC8)CC7)C6=O)cc5[nH]4)c3C[C@@H]1C2(F)F (stereo partly drawn) [Compound 24, 3-(6-(4-(2-(2-((4aS,5aR)-5,5-difluoro-5a-methyl-1,4,4a,5,5a,6-hexahydrocyclopropa[f]indazol-3-yl)-1H-indol-6-yl)-1-oxo-2,8-diazaspiro[4.5]decane-8-carbonyl)piperidin-1-yl)pyridin-3-yl)piperidine-2,6-dione] |  | 0.01
CC1(C)CCc2c(-c3cc4ccc(C(=O)N5CCN(CC6CCN(c7ccc8c(c7)CN(C7CCC(=O)NC7=O)C8=O)CC6)CC5)cc4[nH]3)n[nH]c2C1 (stereo not drawn) [Compound 26, 3-{5-[4-({4-[2-(6,6-dimethyl-1,4,5,7-tetrahydroindazol-3-yl)-1H-indole-6-carbonyl]piperazin-1-yl}methyl)piperidin-1-yl]-1-oxo-3H-isoindol-2-yl}piperidine-2,6-dione] | 88 | < 0.01
C[C@@]12Cc3[nH]nc(C(=O)Nc4cnn([C@H](c5ccccc5)C5CN(C(=O)N6CCC7(CCN(c8ccc9c(c8)C(=O)N(C8CCC(=O)NC8=O)C9=O)CC7)C6)C5)c4)c3C[C@@H]1C2(F)F (stereo partly drawn) [Compound 53] | 94 | 3.3
CC1(C)CCc2c(-c3cc4ccc(C(=O)N5CCC(CC6CCN(c7ccc(C8CCC(=O)NC8=O)cn7)CC6)CC5)cc4[nH]3)n[nH]c2C1 (stereo not drawn) [Compound 54, 3-(6-(4-((1-(2-(6,6-dimethyl-4,5,6,7-tetrahydro-1H-indazol-3-yl)-1H-indole-6-carbonyl)piperidin-4-yl)methyl)piperidin-1-yl)pyridin-3-yl)piperidine-2,6-dione] |  | 11
C[C@@]12Cc3[nH]nc(C(=O)Nc4cnn(C5CN(C(=O)C6CN(c7ccc(C8CCC(=O)NC8=O)cn7)C6)C5)c4)c3C[C@@H]1C2(F)F (stereo partly drawn) [Compound 55, (4aS,5aR)-N-(1-(1-(1-(5-(2,6-dioxopiperidin-3-yl)pyridin-2-yl)azetidine-3-carbonyl)azetidin-3-yl)-1H-pyrazol-4-yl)-5,5-difluoro-5a-methyl-1,4,4a,5,5a,6-hexahydrocyclopropa[f]indazole-3-carboxamide] |  | 1.8

Other lines, results leading:

Dmax [%] | DC50 [nM] | Compound
86 |  | C[C@@]12Cc3[nH]nc(C(=O)Nc4cnn(C5CCN(C(=O)C6CCC(Cn7cc8cc(C9CCC(=O)NC9=O)ccc8n7)CC6)CC5)c4)c3C[C@@H]1C2(F)F (mixture of isomers) [Compound 165]
88 |  | C[C@@]12Cc3[nH]nc(C(=O)Nc4cnn(C5CCN(C(=O)CC6CCN(c7ccc(C8CCC(=O)NC8=O)cn7)CC6)CC5)c4)c3C[C@@H]1C2(F)F (mixture of isomers) [Compound 166]
86 |  | C[C@@]12Cc3[nH]nc(C(=O)Nc4cnn(C5CCN(C(=O)C6CCN(c7ccc(C8CCC(=O)NC8=O)cn7)C6)CC5)c4)c3C[C@@H]1C2(F)F (mixture of isomers) [Compound 167]
87 |  | C[C@@]12Cc3[nH]nc(C(=O)Nc4cnn(CC5CCN(C(=O)C6CCN(c7ccc(C8CCC(=O)NC8=O)cc7)CC6)CC5)c4)c3C[C@@H]1C2(F)F (mixture of isomers) [Compound 173]
88 |  | C[C@@]12Cc3[nH]nc(C(=O)Nc4cnn(C5CCC(C(=O)N6CCN(c7ccc(C8CCC(=O)NC8=O)cc7)CC6)CC5)c4)c3C[C@@H]1C2(F)F (mixture of isomers) [Compound 179]
72 |  | C[C@@]12Cc3[nH]nc(C(=O)Nc4cnn(C5CCN(C(=O)C6CCN(c7ccc(C(=O)NC8CCC(=O)NC8=O)nc7)CC6)CC5)c4)c3C[C@@H]1C2(F)F (mixture of isomers) [Compound 180]
90 | 0.6 | C[C@@]12Cc3[nH]nc(C(=O)Nc4cnn([C@H]5CCN(CC6CCN(c7ccc([C@H]8CCC(=O)NC8=O)cc7)CC6)C[C@@H]5F)c4)c3C[C@@H]1C2(F)F (single isomer, unassigned) [Compound 95]
89 | 1.1 | C[C@@]12Cc3[nH]nc(C(=O)Nc4cnn([C@@H]5CCN(CC6CCN(c7ccc([C@H]8CCC(=O)NC8=O)cc7)CC6)C[C@H]5F)c4)c3C[C@@H]1C2(F)F (single isomer, unassigned) [Compound 96]
